# In ChEMBL document CHEMBL4411302, “Aryl H-phosphonates. 19. New anti-HIV pronucleotide phosphoramidate diesters containing amino- and hydroxypyridine auxiliaries” (Eur J Med Chem, 2019):
# pEC50: −log10 of the molar value.
# How the values were obtained:
# [1] = tested on: Human immunodeficiency virus 1; experiment: Antiviral activity against HIV1 infected in human CEM-T4 cells assessed as protection against virus-induced cytopathogenicity by measuring reduction in p24 level preincubated with cells for 24 hrs followed by viral infection and measured after 8 days by MTT assay; format: functional, organism-based; details: for pEC50: Human immunodeficiency virus 1, CEM-T4, read-out: EC50
# [2] = Cytotoxicity against human CEM-T4 cells assessed as reduction in cell viability after 7 days by MTT assay; format: cell-based; details: for CC50 at 168 h: CEM-T4 cells; for CC50: 168 h
# [3] = Selectivity index, ratio of CC50 for human CEM-T4 cells to EC50 for HIV1 infected in human CEM-T4 cells; format: toxicity, cell-based; details: read-out: Ratio CC50/EC50
# [4] = Half life of the compound in RPMI media at 37 degC; format: physicochemical; details: for half-life: RPMI media
# [5] = Prodrug activation in RPMI media assessed as hydrolysis by measuring P-O bond cleavage
# [6] = Stability of the compound in RPMI media up to 7 days; format: physicochemical; details: 168 h
# [7] = Prodrug activation in RPMI media assessed as hydrolysis by measuring P-O bond cleavage measured after 24 days; details: 576 h
SMILES,pEC50 [1],CC50 at 168 h [2],selectivity ratio [3],half-life [4],EC50 [1],CC50 [2],Drug metabolism [5],t1/2 [4],Stability [6],Drug metabolism [7]
O=c1ccn([C@H]2CC[C@@H](COP(=O)(Nc3ccccc3)Oc3cccnc3)O2)c(=O)[nH]1 (stereo partly specified),5.14,225 µM,31,120 h,,,,,,
Cc1cn([C@H]2C[C@H](N=[N+]=[N-])[C@@H](COP(=O)(Nc3cccnc3)Oc3ccccc3)O2)c(=O)[nH]c1=O (stereo partly specified),7.46,> 400 µM,> 11400,168 h,,,,,,
O=c1ccn([C@H]2CC[C@@H](COP(=O)(Nc3cccnc3)Oc3cccnc3)O2)c(=O)[nH]1 (stereo partly specified),6.26,> 200 µM,> 364,20 h,,,,,,
Cc1cn([C@H]2C[C@H](N=[N+]=[N-])[C@@H](COP(=O)(Nc3ccncc3)Oc3ccccn3)O2)c(=O)[nH]c1=O (stereo partly specified),6.80,> 50 µM,> 250,120 h,,,,,,
Cc1cn([C@H]2C[C@H](N=[N+]=[N-])[C@@H](COP(=O)(Nc3ccccc3)Oc3cccnc3)O2)c(=O)[nH]c1=O (stereo partly specified),> 7.92,360 µM,> 30000,82 h,,,,,,
Cc1cn([C@H]2C[C@H](N=[N+]=[N-])[C@@H](COP(=O)(Nc3cccnc3)Oc3ccncc3)O2)c(=O)[nH]c1=O (stereo partly specified),,,,,Nd(Unstable),Nd(Unstable),Nd(Unstable),Nd(Unstable),,
Cc1cn([C@H]2C[C@H](N=[N+]=[N-])[C@@H](COP(=O)(Nc3ccccc3)Oc3ccncc3)O2)c(=O)[nH]c1=O (stereo partly specified),,,,,Nd(Unstable),Nd(Unstable),Nd(Unstable),Nd(Unstable),,
Cc1cn([C@H]2C[C@H](N=[N+]=[N-])[C@@H](COP(=O)(Nc3cccnc3)Oc3cccnc3)O2)c(=O)[nH]c1=O (stereo partly specified),> 7.70,> 200 µM,> 10000,27 h,,,,,,
Cc1cn([C@H]2C[C@H](N=[N+]=[N-])[C@@H](COP(=O)(Nc3cccnc3)Oc3ccccn3)O2)c(=O)[nH]c1=O (stereo partly specified),7.22,> 200 µM,> 3300,33 h,,,,,,
Cc1cn([C@H]2C[C@H](N=[N+]=[N-])[C@@H](COP(=O)(Nc3ccccc3)Oc3ccccc3)O2)c(=O)[nH]c1=O (stereo partly specified),7.12,> 66.8 µM,> 890,,,,,,Stable,Metabolite_Detected
Cc1cn([C@H]2C[C@H](N=[N+]=[N-])[C@@H](COP(=O)(Nc3ccncc3)Oc3ccccc3)O2)c(=O)[nH]c1=O (stereo partly specified),7.30,> 400 µM,> 8000,192 h,,,,,,
Cc1cn([C@H]2C[C@H](N=[N+]=[N-])[C@@H](COP(=O)(Nc3ccccc3)Oc3ccccn3)O2)c(=O)[nH]c1=O (stereo partly specified),> 7.92,> 22 µM,> 1830,45 h,,,,,,
Cc1cn([C@H]2C[C@H](N=[N+]=[N-])[C@@H](COP(=O)(Nc3ccncc3)Oc3cccnc3)O2)c(=O)[nH]c1=O (stereo partly specified),6.70,> 50 µM,> 250,105 h,,,,,,
Cc1cn([C@H]2C[C@H](N=[N+]=[N-])[C@@H](COP(=O)(Nc3ccncc3)Oc3ccncc3)O2)c(=O)[nH]c1=O (stereo partly specified),,,,,Nd(Unstable),Nd(Unstable),Nd(Unstable),Nd(Unstable),,
O=c1ccn([C@H]2CC[C@@H](COP(=O)(Nc3cccnc3)Oc3ccccc3)O2)c(=O)[nH]1 (stereo partly specified),< 4.52,225 µM,< 7.5,168 h,,,,,,
